Several values for one entry are separate records, joined by “and”; a condition that tells them apart may be missing. Equal entries are not always repeated.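 The compound was tested at five concentrations on cells cultured in 96-well plates, with a 48-hour exposure period. Here, GI50 denotes the concentration required for 50% inhibition of growth.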 Activity calls are given as the source filed them. Cut-off read from the data, not from the text of the source: active = GI50 up to about 1.1 µM and inactive = higher.

The record followed here is ChEMBL document CHEMBL1201862, “PubChem BioAssay data set” (2004).

What all share (assay): NCI anticancer screen, dose series, 48 h
Experiment [1] has as its system HOP-62.
For experiment [2], the system named is DU-145.
Experiment [3] has as its system MDA-N.
The subject of experiment [4] is NCI-H226.
Experiment [5] has as its system U-251.
The test system of experiment [6] is HCT-15.
Experiment [7] concerns NCI-H522.
Experiment [8] deals with RXF 393.
The test system of experiment [9] is 786-0.
For experiment [10], the system named is SK-MEL-28.
Experiment [11] deals with SF-295.
Experiment [12] has as its system SK-MEL-2.
The test system of experiment [13] is MCF7.
Experiment [14] relates to COLO 205.
The test system of experiment [15] is SN12C.
For experiment [16], the system named is KM12.
For experiment [17], the system named is Hs-578T.
The subject of experiment [18] is HOP-92.

Regarding `NCC1OC(n2cnc3c(=O)[nH]c(N)nc32)C(O)C1O` (configuration not stated), the GI50 in experiment [1] is > 100 µM (inactive); in experiment [2], > 100 µM (inactive); in [3] it was > 100 µM (inactive); in experiment [4], > 100 µM (inactive); in [5], > 100 µM (inactive); in [6] it was over 100 µM. Also, the GI50 in [7], in experiment [8], in experiment [9], in experiment [10], in experiment [11] and in [12] was > 100 µM (inactive) in each case. Further, the GI50 in experiment [13] is 95.5 µM (inactive); in [14] it was > 100 µM (inactive); in experiment [15], > 100 µM (inactive); in experiment [16] it was > 100 µM (inactive); in [17], > 100 µM (inactive); in [18], > 100 µM (inactive).
Take `COC(=O)CNC(=O)/C=C/[C@H](O[Si](C)(C)C(C)(C)C)[C@H](/C=C/C(=O)NCC(=O)OC)O[Si](C)(C)C(C)(C)C`: the GI50 was > 25 µM (inactive) in experiment [1]; > 25 µM (inactive) in experiment [2]; > 25 µM (inactive) in [3]; > 25 µM (inactive) in experiment [4]; > 25 µM (inactive) in [5]; over 25 µM in [6]. For the same molecule, the GI50 in experiment [7], in [8], in experiment [9], in experiment [10], in experiment [11] and in experiment [12] was > 25 µM (inactive) in each case. In addition, the GI50 in experiment [13], in experiment [14], in [15], in [16], in experiment [17] and in [18] was > 25 µM (inactive) throughout.
On to `COc1cc(C(c2cccc3ccccc23)N2C(=O)CCC2C(=O)O)cc(OC)c1OC` (configuration not stated), for which the GI50 in [1] was > 100 µM (inactive); in experiment [2], > 100 µM (inactive); in experiment [3], > 100 µM (inactive); in experiment [4], > 100 µM (inactive); in experiment [5], > 100 µM (inactive); in experiment [6], over 100 µM. In addition, the GI50 in experiment [7], in experiment [8], in experiment [9], in experiment [10], in [11] and in [12] was > 100 µM (inactive) throughout. In addition, the GI50 in experiment [13], in [14], in [15], in experiment [16], in experiment [17] and in experiment [18] was > 100 µM (inactive) each time.
Take `O=C(C/N=C(\CN(c1ccccc1)c1ccccc1)Oc1c(Cl)cc(Cl)cc1Cl)N1c2ccccc2Sc2ccccc21`: the GI50 was > 100 µM (inactive) in experiment [1]; > 100 µM (inactive) in experiment [2]; 51.1 µM (inactive) in [3]; 24.4 µM (inactive) in experiment [4]; 53.5 µM (inactive) in experiment [5]; 32.9 µM in experiment [6]. The GI50 is 28.3 µM (inactive) in experiment [7]; 0.101 µM (active) in experiment [8]; 55.3 µM (inactive) in experiment [9]; > 100 µM (inactive) in experiment [10]; > 100 µM (inactive) in experiment [11]; 32.3 µM (inactive) in experiment [13]. The GI50 is 34.8 µM (inactive) in experiment [14]; 47.8 µM (inactive) in [15]; 38.1 µM (inactive) in [16]; 50.9 µM (inactive) in [17]; 21.9 µM (inactive) in experiment [18].
As to `Cc1nc(-c2ccccc2)c(C)n2c1nc1ccccc12`, the GI50 in experiment [1] was 32.4 µM (inactive); in experiment [2], 29.9 µM (inactive); in [3], 29.9 µM (inactive); in experiment [4] it was 40.5 µM (inactive); in [5], 30.1 µM (inactive); in experiment [6], 24.2 µM. The GI50 is 25.1 µM (inactive) in [8]; 29 µM (inactive) in experiment [9]; 39.4 µM (inactive) in experiment [10]; 37.6 µM (inactive) in experiment [11]; 25.9 µM (inactive) in experiment [12]; 24 µM (inactive) in experiment [13]. In addition, the GI50 in [14] is 31.3 µM (inactive); in experiment [15] it was 42.9 µM (inactive); in [16] it was 36.8 µM (inactive); in experiment [17], 40 µM (inactive); in [18] it was 19 µM (inactive).
For the molecule `CN(CCc1ccccn1)C(=S)N/N=C/c1ccccn1`, the GI50 in experiment [1] is 0.0336 µM (active); in [2], 0.298 µM (active); in [3], 0.551 µM (active); in experiment [4], 0.0516 µM (active); in [6], 0.0148 µM; in experiment [7], < 0.01 µM (active). The GI50 was 0.126 µM (active) in experiment [8]; 0.0495 µM (active) in experiment [9]; 0.442 µM (active) in experiment [10]; 0.147 µM (active) in experiment [11]; 0.0168 µM (active) in experiment [12]; < 0.01 µM (active) in experiment [13]. Further, the GI50 in [14] was < 0.01 µM (active); in experiment [15], 0.111 µM (active); in experiment [16], 0.0719 µM (active); in experiment [17], 20 µM (inactive); in [18], 0.105 µM (active).
As for `CC(=O)OC(/C=C/c1ccccc1)P1(=O)N(CC(C)(C)C)[C@@H]2CCCC[C@H]2N1CC(C)(C)C` (some centres not stated), the GI50 in [1] was 16.2 µM (inactive) and 13.1 µM (inactive); in [2], 10.4 µM (inactive) and 9.75 µM (inactive); in [3] it was 11 µM (inactive) and 7.73 µM (inactive); in [4], 6.87 µM (inactive) and 10.9 µM (inactive); in experiment [5] it was 8.81 µM (inactive) and 6.38 µM (inactive); in experiment [6], 6.75 µM and 4.97 µM. In addition, the GI50 was 3.76 µM (inactive) and 3.32 µM (inactive) in experiment [7]; 3.24 µM (inactive) and 6.08 µM (inactive) in experiment [8]; 9.62 µM (inactive) and 7.38 µM (inactive) in experiment [9]; 17.7 µM (inactive) and 13.5 µM (inactive) in experiment [10]; 5.87 µM (inactive) and 3.86 µM (inactive) in [11]; 11.1 µM (inactive) and 5.96 µM (inactive) in experiment [12]. Further, the GI50 in experiment [13] was 4.79 µM (inactive) and 4.61 µM (inactive); in experiment [14], 3.69 µM (inactive) and 3.6 µM (inactive); in experiment [15] it was 10.4 µM (inactive) and 7.59 µM (inactive); in [16] it was 6.3 µM (inactive) and 6.65 µM (inactive); in [17], 6.92 µM (inactive) and 8.67 µM (inactive); in [18], 12 µM (inactive).
With `C(=N\C12CC3CC(CC(C3)C1)C2)/C1CCCCC1`, the GI50 is > 100 µM (inactive) in experiment [1]; > 100 µM (inactive) in experiment [2]; > 100 µM (inactive) in experiment [3]; > 100 µM (inactive) in [4]; > 100 µM (inactive) in experiment [5]; over 100 µM in [6]. The GI50 in [7], in [8], in [9], in experiment [11], in experiment [12] and in experiment [13] was > 100 µM (inactive) each time. For the same molecule, the GI50 in experiment [14], in experiment [15], in experiment [16], in experiment [17] and in [18] was > 100 µM (inactive) in each case.
Turning to `O=C1CSC2(CC(/C=C/c3ccccc3O)=NN2c2cccc(S(=O)(=O)O)c2)N1c1nc2ccccc2s1` (configuration not stated), the GI50 in experiment [2] was 30.5 µM (inactive); in experiment [3] it was 38.3 µM (inactive); in experiment [4], 22.2 µM (inactive); in [5], 33.9 µM (inactive); in [6] it was 20 µM; in experiment [7], 15.7 µM (inactive). Besides, the GI50 is 54.6 µM (inactive) in experiment [8]; 31.6 µM (inactive) in experiment [9]; 56.5 µM (inactive) in [10]; 34 µM (inactive) in experiment [12]; 34.3 µM (inactive) in experiment [13]; 29.9 µM (inactive) in [14]. Further, the GI50 was 24.8 µM (inactive) in [15], 30.6 µM (inactive) in experiment [16], 47.3 µM (inactive) in [17] and 25.6 µM (inactive) in experiment [18].
On to `C[C@@H]1CC[C@]2(C)C3(C)CC[C@]2(OC3=O)[C@@]12CC(c1ccoc1)OC2=O` (some centres not stated), for which the GI50 is > 100 µM (inactive) in [1]; > 100 µM (inactive) in experiment [2]; 34.4 µM (inactive) in experiment [3]; > 100 µM (inactive) in [4]; 44.5 µM (inactive) in [5]; 31.4 µM in experiment [6]. Moreover, the GI50 was 2.15 µM (inactive) in [7]; 24.8 µM (inactive) in [8]; 20.5 µM (inactive) in [9]; 26.7 µM (inactive) in experiment [10]; > 100 µM (inactive) in [11]; 58.6 µM (inactive) in experiment [12]. For the same molecule, the GI50 in experiment [13] is 61 µM (inactive); in experiment [14], 19.3 µM (inactive); in experiment [15], 33.8 µM (inactive); in experiment [16] it was > 100 µM (inactive); in experiment [17] it was 54.2 µM (inactive); in experiment [18] it was 32.8 µM (inactive).
As for `CC(=O)c1csc2c1C(=O)c1ccccc1C2=O`, the GI50 in [1] is 1.97 µM (inactive); in experiment [2], 1.67 µM (inactive); in experiment [3], 1.22 µM (inactive); in [4], 1.58 µM (inactive); in experiment [5] it was 2.88 µM (inactive); in [6], 4.55 µM. For the same molecule, the GI50 was 1.78 µM (inactive) in experiment [7]; 10.2 µM (inactive) in experiment [8]; 2.07 µM (inactive) in experiment [9]; 1.92 µM (inactive) in [10]; 1.55 µM (inactive) in experiment [11]; 3.06 µM (inactive) in experiment [12]. The GI50 in [13] is 2.1 µM (inactive); in experiment [14], 1.74 µM (inactive); in [15] it was 2.25 µM (inactive); in [16], 1.53 µM (inactive); in experiment [17], 2.43 µM (inactive); in experiment [18], 30.5 µM (inactive).
